Broadly, the half-life is the time in which the quantity being followed falls by half. As a reminder, the ED50 is the dose that gives a 50% effect, or the effect in half of the subjects. Broadly, the IC50 is the concentration that gives 50% inhibition. A word on the Ki: it is a dissociation constant, usually derived from enzyme kinetics or from competition with a known ligand. For orientation: EC50 means the midpoint of the concentration-response curve.

Data set [1] is described as follows: Half life of the compound. The format is physicochemical.
For data set [2], the system named is Rattus norvegicus. The data set is described as follows: Immunomodulatory activity in rat assessed as decrease in peripheral blood lymphocyte count at 100 mg/kg, po after 12 hrs. The class given is functional. Set-up: scale not given: the % may be the effect or the level left.
Another data set relates to Mus musculus. Put plainly: Immunomodulatory activity in po dosed mouse assessed as decrease in peripheral blood lymphocyte count after 3 hrs. The class given is functional.
In data set [3] the target is Sphingosine 1-phosphate receptor 1 (Homo sapiens, UniProt P21453). Put plainly: Antagonist activity at human S1P1 receptor expressed in HEK293 cells assessed as inhibition of S1P-induced decrease in cAMP formation by [35S]GTPgammaS binding assay. The class given is functional, cell-based. On the technique in general: Changes in cAMP serve as a functional read-out for many G protein-coupled receptors.

Data set [4] deals with Rattus norvegicus. The data set is described as follows: Immunomodulatory activity in rat assessed as decrease in peripheral blood lymphocyte count at 50 mg/kg, po after 1 to 8 hrs. The format is functional. The arrangement: scale not given: the % may be the effect or the level left.
Data set [5] has as its target T1, Sphingosine 1-phosphate receptor 5 (Homo sapiens, UniProt Q9H228). Put plainly: Inhibition of S1P5 receptor (unknown origin).
Data set [6] addresses T2, Sphingosine 1-phosphate receptor 3 (Homo sapiens, UniProt Q99500). The data set is described as follows: Inhibition of S1P3 receptor (unknown origin).
Data set [7] deals with T3, Sphingosine 1-phosphate receptor 4 (Homo sapiens, UniProt O95977).
T3 sequence (O95977 whole entry): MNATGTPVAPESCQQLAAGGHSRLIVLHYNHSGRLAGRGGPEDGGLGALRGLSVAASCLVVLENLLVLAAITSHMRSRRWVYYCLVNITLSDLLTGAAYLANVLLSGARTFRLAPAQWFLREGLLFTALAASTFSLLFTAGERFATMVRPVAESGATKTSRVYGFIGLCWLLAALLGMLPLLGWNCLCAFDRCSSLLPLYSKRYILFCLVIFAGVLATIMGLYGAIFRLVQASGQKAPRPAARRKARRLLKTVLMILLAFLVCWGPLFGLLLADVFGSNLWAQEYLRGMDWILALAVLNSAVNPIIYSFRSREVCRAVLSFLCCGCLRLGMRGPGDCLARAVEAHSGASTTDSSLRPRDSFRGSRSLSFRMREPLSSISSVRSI
The data set is described as follows: Inhibition of S1P4 receptor (unknown origin).

Data set [8] concerns the target Sphingosine 1-phosphate receptor 2 (Homo sapiens, UniProt O95136). The data set is described as follows: Antagonist activity at human S1P2 receptor expressed in CHO cells assessed as inhibition of agonist-induced calcium mobilization preincubated for 20 mins by Fluo-4/FLIPR method. The format is functional, cell-based. (In general: Calcium assays in cells follow changes in intracellular calcium, usually with a dye or a luminescent sensor.)

Data set [9] concerns the target T2, Sphingosine 1-phosphate receptor 3. Put plainly: Antagonist activity at human S1P3 receptor expressed in CHO cells assessed as inhibition of agonist-induced calcium mobilization preincubated for 20 mins by Fluo-4/FLIPR method. The class given is functional, cell-based.
Data set [10] concerns Rattus norvegicus. The data set is described as follows: Immunomodulatory activity in rat assessed as decrease in peripheral blood lymphocyte count at 30 mg/kg, po after 48 hrs. The format is functional. The arrangement: scale not given: the % may be the effect or the level left.
Data set [11] deals with T1, Sphingosine 1-phosphate receptor 5. Put plainly: Antagonist activity at human S1P5 receptor expressed in CHO cells after 120 mins by [35S]GTPgammaS binding assay. The class given is functional, cell-based. A general note: GTPγS resists hydrolysis and so accumulates on activated G proteins.
The target in data set [12] is T3, Sphingosine 1-phosphate receptor 4. The data set is described as follows: Agonist activity at S1P4 receptor (unknown origin).
The test system of data set [13] is Rattus norvegicus. Put plainly: Immunomodulatory activity in rat assessed as decrease in peripheral blood lymphocyte count at 30 mg/kg, po after 14 to 24 hrs. The arrangement: scale not given: the % may be the effect or the level left. The class given is functional.
The target in data set [14] is T3, Sphingosine 1-phosphate receptor 4. Put plainly: Antagonist activity at human S1P4 receptor expressed in CHO cells assessed as inhibition of agonist-induced calcium mobilization preincubated for 20 mins by Fluo-4/FLIPR method. The class given is functional, cell-based.
Data set [15] has as its target T2, Sphingosine 1-phosphate receptor 3. The data set is described as follows: Agonist activity at S1P3 receptor (unknown origin).
Data set [16] in a line: Half life in human. As to conditions: in vivo. The format is ADME, organism-based.
For data set [17], the system named is Homo sapiens. Put plainly: Immunomodulatory activity in multiple sclerosis patient assessed as decrease in peripheral blood lymphocyte count at 5 mg/kg, po. The format is functional. The arrangement: scale not given: the % may be the effect or the level left.
Data set [18] relates to Homo sapiens. The data set is described as follows: Immunomodulatory activity in multiple sclerosis patient assessed as decrease in peripheral blood lymphocyte count at 1.25 mg/kg, po. The class given is functional. The arrangement: scale not given: the % may be the effect or the level left.
The target in data set [19] is T1, Sphingosine 1-phosphate receptor 5. Put plainly: Agonist activity at S1P5 receptor (unknown origin).
For data set [20] the target is unchanged. Put plainly: Agonist activity at human S1P5 receptor expressed in CHO cells by [35S]GTPgammaS binding assay. The format is functional, cell-based.
The target of data set [21] is T3, Sphingosine 1-phosphate receptor 4. The data set is described as follows: Agonist activity at human S1P4 receptor expressed in CHO cells by [35S]GTPgammaS binding assay. The format is functional, cell-based.

A value given as a limit tells only on which side of the number the result lay.

T1 sequence (Q9H228 whole entry): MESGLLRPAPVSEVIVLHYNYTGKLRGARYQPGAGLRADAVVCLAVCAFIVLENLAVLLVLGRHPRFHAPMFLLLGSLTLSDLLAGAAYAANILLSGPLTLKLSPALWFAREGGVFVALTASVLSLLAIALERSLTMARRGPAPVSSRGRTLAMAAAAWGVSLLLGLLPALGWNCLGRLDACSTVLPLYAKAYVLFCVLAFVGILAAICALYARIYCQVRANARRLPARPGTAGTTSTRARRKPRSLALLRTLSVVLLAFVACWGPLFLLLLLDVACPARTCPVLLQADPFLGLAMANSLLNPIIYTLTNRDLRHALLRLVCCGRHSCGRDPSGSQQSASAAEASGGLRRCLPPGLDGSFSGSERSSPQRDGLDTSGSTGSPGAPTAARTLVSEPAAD
T2 sequence (Q99500 whole entry): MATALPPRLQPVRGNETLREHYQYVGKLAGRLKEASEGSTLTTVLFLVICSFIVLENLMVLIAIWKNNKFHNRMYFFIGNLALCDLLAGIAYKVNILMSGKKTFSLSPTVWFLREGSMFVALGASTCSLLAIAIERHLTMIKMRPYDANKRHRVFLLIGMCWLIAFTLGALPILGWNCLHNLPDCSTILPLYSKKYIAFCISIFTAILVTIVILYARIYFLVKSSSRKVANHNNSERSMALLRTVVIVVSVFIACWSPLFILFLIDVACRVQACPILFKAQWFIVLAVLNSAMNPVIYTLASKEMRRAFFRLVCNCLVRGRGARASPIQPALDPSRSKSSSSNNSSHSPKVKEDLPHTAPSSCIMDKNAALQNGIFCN
Sequence of Sphingosine 1-phosphate receptor 1 (P21453 whole entry): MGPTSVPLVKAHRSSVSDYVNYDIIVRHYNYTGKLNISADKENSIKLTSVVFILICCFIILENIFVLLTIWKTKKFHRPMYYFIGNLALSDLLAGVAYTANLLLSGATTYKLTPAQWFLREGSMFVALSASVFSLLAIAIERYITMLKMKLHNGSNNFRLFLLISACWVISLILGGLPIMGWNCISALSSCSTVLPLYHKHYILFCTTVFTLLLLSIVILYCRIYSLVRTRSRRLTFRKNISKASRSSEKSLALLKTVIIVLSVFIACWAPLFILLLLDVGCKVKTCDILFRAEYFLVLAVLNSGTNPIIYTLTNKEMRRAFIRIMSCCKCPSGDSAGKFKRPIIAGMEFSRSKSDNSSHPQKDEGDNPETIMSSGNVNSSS
Sequence of Sphingosine 1-phosphate receptor 2 (O95136 whole entry): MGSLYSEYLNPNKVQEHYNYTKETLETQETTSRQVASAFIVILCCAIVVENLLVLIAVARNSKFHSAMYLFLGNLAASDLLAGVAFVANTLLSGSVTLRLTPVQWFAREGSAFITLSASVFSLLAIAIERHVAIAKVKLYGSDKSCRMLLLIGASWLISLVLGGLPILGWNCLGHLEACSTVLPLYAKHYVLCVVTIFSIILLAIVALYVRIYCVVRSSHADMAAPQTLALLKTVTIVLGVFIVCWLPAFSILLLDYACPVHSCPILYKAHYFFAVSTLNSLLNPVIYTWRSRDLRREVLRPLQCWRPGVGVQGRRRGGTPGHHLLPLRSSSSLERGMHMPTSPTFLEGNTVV

Take `Cc1ccc(CCCC(=O)c2ccc(CC[C@@](C)(N)CO)n2C)cc1`: the half-life in data set [1] was 168 h.

Turning to `Cc1cc(S(=O)(=O)Nc2cccc(-c3cc(C)c(C(=O)N[C@@H](C)C(=O)O)c(C)c3)c2)c(C)cc1Cl`, the Activity with Rattus norvegicus [2] was found to be 75%.

Consider `O=C(O)C1CN(Cc2ccc(-c3noc(-c4cc(-c5ccccc5)c(C(F)(F)F)s4)n3)cc2)C1`, for which the ED50 with Mus musculus is 0.07 mg/kg.

Turning to `CCn1c(OC)nnc1[C@@H](C)NS(=O)(=O)c1ccc(F)c(Cl)c1`, the half-inhibitory concentration (IC50) in data set [3] came to 383 nM. Further, the Ki in data set [3] is 249 nM; in [5], greater than 10000 nM; in data set [6], 4880 nM; in data set [7], greater than 10000 nM. In addition, the Activity in the data set with Rattus norvegicus [4] is listed as greater than 70%.

Turning to `Cc1cc([C@@H](C)Nc2cccc(-c3cc(C)c(C(=O)N[C@@H](C)C(=O)O)c(C)c3)c2)ccc1Cl`, the half-maximal inhibitory concentration (IC50) in data set [8], in data set [9], in data set [11] and in data set [14] was greater than 10000 nM each time. Further, the Activity with Rattus norvegicus [10] worked out at 60%; with Rattus norvegicus [13], 75%. The compound further yielded a half-maximal effective concentration (EC50) in data set [12] of 245 nM.

For the compound `CCCCCCCCc1ccc(CCC(N)(CO)CO)cc1` [FINGOLIMOD], the half-maximal effective concentration (EC50) in [15] was 3 nM; in data set [12], 0.3 nM; in [19], 0.3 nM. In data set [16], the half-life is 216 h. Further, the Activity in the data set on Homo sapiens [17] and in the data set with Homo sapiens [18] was 20% throughout.

For `CCC/N=C1\S/C(=C\c2ccc(OC[C@H](O)CO)c(Cl)c2)C(=O)N1c1ccccc1C` [PONESIMOD], in data set [1], the half-life is 30 h.

With `CCc1cc(/C(C)=N/OCc2ccc(C3CCCCC3)c(C(F)(F)F)c2)ccc1CN1CC(C(=O)O)C1` [SIPONIMOD], the results for the concentration giving a half-maximal response (EC50) in data set [20] and in [21] were 0.98 nM and 750 nM, respectively. In [16], this compound showed a half-life of 30 h.
